{"source": "patent US9909219B2", "about": "“Slurry biocide” (ECOLAB USA INC., priority 2014, dated 2018)", "key": {"Total Aerobic Bacteria": {"tested_on": "Total Aerobic Bacteria", "experiment": "Biocide treatment of pipeline makeup water (river water): total aerobic bacteria count", "assay_type": "cell-based", "from_the_text": "(§1) Two water samples collected directly of makeup water of a pipeline sourced form river water, were submitted to biocide treatment. One sample was highly contaminated with microorganisms (1700 CFU/mL) while the other was less contaminated (120 CFU/mL). […] There is a dramatic reduction in required dosage using oxidizing biocide ([…]) (Tests 3, 4 and 7)."}, "[1]": {"tested_on": "Sulfate Reducing Bacteria", "experiment": "Biocide treatment of pipeline makeup water (river water): sulfate reducing bacteria count", "assay_type": "cell-based", "from_the_text": "as §1"}}}
{"smiles": "O=CCCCC=O", "note": "[A, Glutaraldehyde]", "values": [{"measurement": "Final Count Total Aerobic Bacteria", "setting": "Total Aerobic Bacteria; Test 1, initial count 1700 CFU/mL, dosage 500 ppm", "value": 330, "unit": "CFU/mL"}, {"measurement": "Final Count Total Aerobic Bacteria", "setting": "Total Aerobic Bacteria; Test 5, initial count 120 CFU/mL, dosage 500 ppm", "value": "<27", "unit": "CFU/mL"}, {"measurement": "Final Count Sulfate Reducing Bacteria", "setting": "[1]; Test 1, initial count 30 CFU/mL, dosage 500 ppm", "value": 10, "unit": "CFU/mL"}, {"measurement": "Final Count Sulfate Reducing Bacteria", "setting": "[1]; Test 5, initial count <10 CFU/mL, dosage 500 ppm", "value": "<10", "unit": "CFU/mL"}]}
{"smiles": "[O][Cl+][O-]", "note": "[ClO2, chlorine dioxide]", "values": [{"measurement": "Final Count Total Aerobic Bacteria", "setting": "Total Aerobic Bacteria; Test 3, initial count 1700 CFU/mL, dosage 5 ppm", "value": 30, "unit": "CFU/mL"}, {"measurement": "Final Count Total Aerobic Bacteria", "setting": "Total Aerobic Bacteria; Test 4, initial count 120 CFU/mL, dosage 4 ppm", "value": "<27", "unit": "CFU/mL"}, {"measurement": "Final Count Total Aerobic Bacteria", "setting": "Total Aerobic Bacteria; Test 7, initial count 120 CFU/mL, dosage 1.5 ppm", "value": "<27", "unit": "CFU/mL"}, {"measurement": "Final Count Sulfate Reducing Bacteria", "setting": "[1]; Test 3, initial count 30 CFU/mL, dosage 5 ppm", "value": "<10", "unit": "CFU/mL"}, {"measurement": "Final Count Sulfate Reducing Bacteria", "setting": "[1]; Test 4, initial count <10 CFU/mL, dosage 4 ppm", "value": "<10", "unit": "CFU/mL"}, {"measurement": "Final Count Sulfate Reducing Bacteria", "setting": "[1]; Test 7, initial count <10 CFU/mL, dosage 1.5 ppm", "value": "<10", "unit": "CFU/mL"}]}
